Reference: US4116972A, “Anti-inflammatory 1-oxo-isoindoline derivatives and processes for their preparation” (Fuji Chemical Industry Company Limited, priority 1975, dated 1978)
Where two headings read alike, the source gives them in different places.

Legend:
stomach [1] = experiment: Effect on gastric ulcer, first method (single oral administration); format: in vivo, rat (male, Donryu strain); settings: 18 hours
Experimental: (§1) Each compound to be tested was suspended in a 0.3% solution of carboxymethylcellulose in physiological saline and administered in an amount of 1 ml per 200 g body weight of the rat. Determination of the occurrence of gastric inflammation and ulceration was calculated by adding the sizes of ulcerated regions (mm^2) of each rat observed within a lattice (width 1 cm, divided into 10 equal parts) of a stereomicroscope. The determination was made on the stomach removed after sacrifice of the animal and then fixed for 10 minutes with 1% formalin.
In a first method, the compound to be tested was administered orally after 24 hours starvation and then, after a further 18 hours, the animal was sacrificed, under ether anaesthesia.

stomach [2] = experiment: Effect on gastric ulcer, second method (repeated oral administration); format: in vivo, rat (male, Donryu strain)
Experimental: Male rats of the Donryu strain having a body weight of 150-200 g were starved for 24 hours and the effects of administration of Compound 1 and its aluminium salt (Compound 7) on the occurrence of gastric ulcers were determined, as were the effects of other known anti-inflammatory agents.
as §1
As a second method, first oral administration was effected after 24 hours starvation and a second oral administration was effected after a further 12 hours starvation. Each animal was then sacrificed, under ether anaesthesia, 6 hours after the second administration. This method was employed to observe the effect after repeated administration of the compounds of the invention.

[3] = test system: male rats of the Wistar strain; experiment: Analgesic effect, Pressure Method; format: in vivo, rat (male
Experimental: (§2) The rats were tested in groups of six. Only those animals having a normal pain threshold in both hind legs were selected for the tests. The compound to be tested was suspended in 0.3% carboxymethylcellulose aqueous solution and administered orally. […] The analgesic activity was tested by the Pressure Method [Brit. J. […] Int.

[4] = test system: carrageenin-induced oedema; experiment: Carrageenin-oedema test in rats (anti-inflammatory activity); format: in vivo, rat (male, Wistar strain)
Experimental: Compound 1 was administered through a stomach tube, in suspension in a 0.3% by weight carboxymethylcellulose aqueous solution, in an amount of 6.25 mg/kg or 12.5 mg/kg to male rats of the Wistar strain having a body weight of 120-130 g. After 1 hour, inflammation was induced by injecting subcutaneously […] of a 1% carrageenin suspension into the plantar tissue of the right hind paw of each rat. Paw oedema was measured volumetrically,immediately before and also every hour for 5 hours after the carrageenin injection, and the response, measured as the oedema effect (E) was calculated by the following equation: […]
where Vo and VT represents the paw volumes O and T after the carrageenin injection, respectively.
The tests were also carried out on a control group of rats to which no anti-inflammatory agent had been administered. Each test was carried out on a group of six rats.
The inhibitory effect was measured by the inhibitory ratio (IR), calculated from the following equation:
IR = […] 100 (%)
where Ec represents the oedema ratio of the control rats and E represents the oedema ratio of the rats treated with Compound 1.
The inhibitory ratio was determined on administration of various amounts of Compound 1 and the results obtained 3 hours after carrageenin injection are shown in Table 1.

[5] = test system: male rats of the Wistar strain; experiment: Analgesic effect, Acetic Acid Raising Method; format: in vivo, rat (male; set-up: unit not given here
[6] = test system: male rats of the Wistar strain; experiment: Analgesic effect, Randall-Selitto Method; format: in vivo, rat (male
Experimental: as §2

Acute toxicity (oral) = format: in vivo; settings: in vivo; for LD50 at 168 h: rat, po
Experimental: (§3) Compound 1 was administered in the amounts shown in Table 3 to male rats of the Wistar strain having a body weight of 110-130 g. The rats were tested in groups of eight and similar tests were applied to similar groups of female rats. The compound to be tested was suspended in a 0.3% aqueous solution of carboxymethylcellulose and was administered through a stomach tube. The lethal dose 50% (LD50) and credibility limit 95% (CL) were calculated from the lethal effect by the method of Litchield and Wilcoxon [J. Pharmac. Exp. Ther., 96, 99 (1949)]; the lethal effect was expressed as X/n, in which X is the number of animals which were dead one week after administration and n is the total number of animals used in the test.

[7] = test system: rats of the Wistar strain; experiment: Acute toxicity (oral); format: in vivo; settings: one week after administration
Experimental: as §3

[8] = test system: male rats of the Wistar strain; experiment: Analgesic effect, overall (Pressure, Acetic Acid Raising and Randall-Selitto methods); format: in vivo, rat (male; settings: oral
Experimental: as §2

Solubility = format: physicochemical
[9] = 200 × 2 mg/kg P.O., Aspirin marked * (significant difference vs phenylbutazone at p = 0.01)
[10] = 50 mg/kg P.O., Compound 7 marked ** (significant difference vs phenylbutazone at p = 0.01)
[11] = 50 × 2 mg/kg P.O., vs phenylbutazone: Compound 1 * (p = 0.01), Compound 7 ** (p = 0.1), 2 mg/kg

Compound: CC(=O)Oc1ccccc1C(=O)O [Aspirin]
- Size of ulcerated region of stomach (stomach [1]; 200 mg/kg P.O.): 9.7 ± 1.36 mm^2
- Size of ulcerated region of stomach (stomach [2]; [9]): 27.2 ± 3.01 mm^2

Compound: Cc1c(N(C)C)c(=O)n(-c2ccccc2)n1C [Aminopyrine]
- Pressure method, Ratio (average) ([3]; 150 mg/kg orally): 2.02

Compound: CC(C(=O)O)c1ccc(N2CC3=C(CC=CC3)C2=O)cc1 (stereo not drawn) [Compound 1, α-[4-(1-oxo-4,7-dihydro-2-isoindolinyl)phenyl]propionic acid]
- Inhibitory ratio ([4]; 5 mg/kg oral, 3 hours after carrageenin injection): 33.2%
- Inhibitory ratio ([4]; 10 mg/kg oral, 3 hours after carrageenin injection): 57.1%
- Inhibitory ratio ([4]; 20 mg/kg oral, 3 hours after carrageenin injection): 64.7%
- Inhibitory ratio ([4]; 40 mg/kg oral, 3 hours after carrageenin injection): 69.0%
- dose dependence of inhibitory effect (in words) ([4]; 5-40 mg/kg, 3 hours after carrageenin injection): increased in rough proportion to the amount of Compound 1 administered
- inhibitory effect over the first 5 hours (in words) ([4]; 6.25 or 12.5 mg/kg oral): strong inhibitory effect appeared over the first 5 hours
- onset of inhibitory effect (in words) ([4]; 6.25 or 12.5 mg/kg oral): clearly appeared at the end of the first hour after carrageenin injection
- ED50 ([4]; 3 h, oral, rat carrageenin oedema, range printed 4.0-30.9 mg/kg, read-out: ED50 (effective dose 50%)): 11.1 mg/kg
- inhibitory effect on carrageenin-induced oedema (in words) ([4]; rat hind paw oedema): particularly strong inhibitory effect
- Pressure method, Ratio (average) ([3]; 150 mg/kg orally): 1.36
- Acetic Acid Raising method, a (graded response) ([5]; 100 mg/kg orally): 21.0
- Acetic Acid Raising method, b (all or none response) ([5]; 100 mg/kg orally): 7
- Randall-Selitto method, Analgesic index, Inflamed foot ([6]; 10 mg/kg orally): 1.21
- Randall-Selitto method, Analgesic index, Normal foot ([6]; 10 mg/kg orally): 1.04
- selectivity ratio (Acute toxicity (oral); oral LD50 male rat / ED50 carrageenin oedema rat, read-out: therapeutic index (LD50/ED50)): 29.6
- LD50 at 168 h (Acute toxicity (oral); female rats, 95% CL (250-476), read-out: LD50, Female): 345 mg/kg
- LD50 at 168 h (Acute toxicity (oral); male rats, 95% CL (238-453), read-out: LD50, Male): 328 mg/kg
- Lethal effect, Female (dead/total) ([7]; 180 mg/kg oral): 1/8
- Lethal effect, Male (dead/total) ([7]; 180 mg/kg oral): 0/8
- Lethal effect, Female (dead/total) ([7]; 234 mg/kg oral): 2/8
- Lethal effect, Male (dead/total) ([7]; 234 mg/kg oral): 2/8
- Lethal effect, Female (dead/total) ([7]; 304 mg/kg oral): 3/8
- Lethal effect, Male (dead/total) ([7]; 304 mg/kg oral): 4/8
- Lethal effect, Female (dead/total) ([7]; 395 mg/kg oral): 5/8
- Lethal effect, Male (dead/total) ([7]; 395 mg/kg oral): 5/8
- Lethal effect, Female (dead/total) ([7]; 514 mg/kg oral): 6/8
- Lethal effect, Male (dead/total) ([7]; 514 mg/kg oral): 6/8
- Lethal effect, Female (dead/total) ([7]; 668 mg/kg oral): 8/8
- Lethal effect, Male (dead/total) ([7]; 668 mg/kg oral): 8/8
- Size of ulcerated region of stomach (stomach [1]; [10]): 4.1 ± 0.46 mm^2
- Size of ulcerated region of stomach (stomach [2]; [11]): 11.3 ± 2.00 mm^2
- analgesic effect (in words) [8]: weak

Compound: CC(C(=O)O)c1cccc(C(=O)c2ccccc2)c1 (centres unmarked) [Ketoprofen]
- Pressure method, Ratio (average) ([3]; 100 mg/kg orally): 1.40
- Acetic Acid Raising method, a (graded response) ([5]; 100 mg/kg orally): 53.8
- Acetic Acid Raising method, b (all or none response) ([5]; 100 mg/kg orally): 60
- Randall-Selitto method, Analgesic index, Inflamed foot ([6]; 10 mg/kg orally): 1.20
- Randall-Selitto method, Analgesic index, Normal foot ([6]; 10 mg/kg orally): 1.03

Compound: CC(C)Cc1ccc(C(C)C(=O)O)cc1 (centres unmarked) [Ibuprofen]
- Acetic Acid Raising method, a (graded response) ([5]; 200 mg/kg orally): 21.9
- Acetic Acid Raising method, b (all or none response) ([5]; 200 mg/kg orally): 20
- Randall-Selitto method, Analgesic index, Inflamed foot ([6]; 100 mg/kg orally): 1.20
- Randall-Selitto method, Analgesic index, Normal foot ([6]; 100 mg/kg orally): 1.05

Compound: CCCCC1C(=O)N(c2ccccc2)N(c2ccccc2)C1=O [Phenylbutazone]
- Acetic Acid Raising method, a (graded response) ([5]; 200 mg/kg orally): 25.8
- Acetic Acid Raising method, b (all or none response) ([5]; 200 mg/kg orally): 20
- Size of ulcerated region of stomach (stomach [1]; 200 mg/kg P.O.): 6.6 ± 1.31 mm^2
- Size of ulcerated region of stomach (stomach [2]; [9]): 17.2 ± 1.93 mm^2

Compound: CC(C(=O)O)c1ccc(N2CC3=C(CC=CC3)C2=O)cc1 (stereo not drawn) [Compound 7, Aluminium α-[4-(1-oxo-4,7-dihydro-2-isoindolinyl)phenyl]propionate]
- Size of ulcerated region of stomach (stomach [1]; [10]): 2.4 ± 0.49 mm^2
- Size of ulcerated region of stomach (stomach [2]; [11]): 10.3 ± 1.00 mm^2
- solubility in dimethyl sulphoxide (Solubility; dimethyl sulphoxide): slightly soluble
- solubility in most organic solvents (Solubility; most organic solvents): sparingly soluble

Compound: COc1ccc2c(c1)c(CC(=O)O)c(C)n2C(=O)c1ccc(Cl)cc1 [Indomethacin]
- Size of ulcerated region of stomach (stomach [1]; 20 mg/kg P.O.): 8.0 ± 1.22 mm^2
- Size of ulcerated region of stomach (stomach [2]; 20 × 2 mg/kg P.O.): 15.3 ± 1.20 mm^2

Compound: Cc1cccc(Nc2ccccc2C(=O)O)c1C [Mefenamic acid]
- Acetic Acid Raising method, a (graded response) ([5]; 150 mg/kg orally): 45.4
- Acetic Acid Raising method, b (all or none response) ([5]; 150 mg/kg orally): 60
